30 compounds from US8129377B2, “6-(pyridinyl)-4-pyrimidone derivates as tau protein kinase 1 inhibitors” (Mitsubishi Tanabe Pharma Corporation, priority 2004, dated 2012) can be followed below.

This experiment addresses T1, bovine cerebral TPK1 (Bos taurus, UniProt A0A3Q1MT31).
T1 construct: from tissue; host or cells: bovine brain (cerebrum)
As to the kind of experiment: Inhibitory activity against P-GS1 phosphorylation by bovine cerebral TPK1. The settings on record: 41.7 μM [γ-32P] ATP, 25° C., 2 hours. It is filed as biochemical. How it is done: Experiment 1: Inhibitory Activity of the Medicament of the Present Invention Against P-GS1 Phosphorylation by Bovine Cerebral TPK1
A mixture containing 100 mM MES-sodium hydroxide (pH 6.5), 1 mM magnesium acetate, 0.5 mM EGTA, 5 mM β-mercaptoethanol, 0.02% Tween 20, 10% glycerol, 12 μg/ml P-GS1, 41.7 μM [γ^−32P] ATP (68 kBq/ml), bovine cerebral TPK1 and a compound shown in Table (a final mixture contained 1.7% DMSO deriving from a solution of a test compound prepared in the presence of 10% DMSO) was used as a reaction system. The phosphorylation was started by adding ATP, and the reaction was conducted at 25° C. for 2 hours, and then stopped by adding 21% perchloric acid on ice cooling. The reaction mixture was centrifuged at 12,000 rpm for 5 minutes and adsorbed on P81 paper (Whatmann), and then the paper was washed four times with 75 mM phosphoric acid, three times with water and once with acetone. The paper was dried, and the residual radioactivity was measured using a liquid scintillation counter.

T1 sequence (A0A3Q1MT31 1-419): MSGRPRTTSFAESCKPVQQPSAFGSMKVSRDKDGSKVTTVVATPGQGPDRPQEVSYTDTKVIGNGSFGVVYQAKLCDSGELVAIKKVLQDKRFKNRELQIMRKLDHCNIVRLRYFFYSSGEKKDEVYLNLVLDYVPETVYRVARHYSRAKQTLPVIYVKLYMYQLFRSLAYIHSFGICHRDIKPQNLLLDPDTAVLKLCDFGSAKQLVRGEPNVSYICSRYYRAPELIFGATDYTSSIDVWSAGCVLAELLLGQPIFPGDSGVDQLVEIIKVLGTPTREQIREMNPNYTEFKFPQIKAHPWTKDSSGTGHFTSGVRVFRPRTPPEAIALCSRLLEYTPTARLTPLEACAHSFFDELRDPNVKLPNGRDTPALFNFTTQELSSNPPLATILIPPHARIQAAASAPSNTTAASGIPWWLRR

`Cn1c(N2CCO[C@@H](c3ccc(N4CCC(N5CCCC5)CC4)cc3)C2)nc(-c2ccncc2F)cc1=O` [compound 17] gave an IC50 of 1.7 nM.

`COc1ccc(-c2ccc([C@H]3CN(c4nc(-c5ccncc5F)cc(=O)n4C)CCN3)cc2)cc1` [compound 41] yielded a half-maximal inhibitory concentration (IC50) of 0.73 nM.

In the case of `Cn1c(N2CCN[C@@H](c3ccc(-c4ncon4)cc3)C2)nc(-c2ccncc2F)cc1=O` [compound 322, 6-(3-Fluoropyridin-4-yl)-3-methyl-2-((3S)-3-(4-([1,2,4]oxadiazol-3-yl)phenyl)piperazin-1-yl)-3H-pyrimidin-4-one], the IC50 worked out at 4.8 nM.

As to `COC(=O)Nc1ccc([C@H]2CN(c3nc(-c4ccncc4F)cc(=O)n3C)CCO2)cc1` [compound 295, Methyl (4-((2S)-4-(6-(3-fluoropyridin-4-yl)-3-methyl-4-oxo-3H-pyrimidin-2-yl)morpholin-2-yl)phenyl)carbamate], inhibition was half-maximal at 1.2 nM (IC50). Against the preceding compound, the IC50 is about 4-fold lower.

The compound `Cn1c(N2CCC(Nc3cccc(C(F)(F)F)c3)CC2)nc(-c2ccncc2F)cc1=O` [compound 105] displayed an IC50 of 8.2 nM. This IC50 lies about 6.8-fold higher than the previous one.

`CNc1cc(-c2cc(=O)n(C)c(N3CCO[C@@H](c4cc(C#N)ccc4OC)C3)n2)ccn1` [compound 196] registered a half-maximal inhibitory concentration (IC50) of 13 nM.

Take `CN(C)CC(=O)Nc1ccc([C@H]2CN(c3nc(-c4ccncc4F)cc(=O)n3C)CCO2)cc1` [compound 288, N^2,N^2-Dimethyl-N^1-(4-((2S)-4-(3-methyl-4-oxo-3,4-dihydro-6-(3-fluoropyridin-4-yl)pyrimidin-2-yl)morpholin-2-yl)phenyl)glycinamide]: the concentration for half-maximal inhibition (IC50) is 0.27 nM.

In turn, `Cn1c(N2CCC(c3ccc(N4CCCC4)cc3)CC2)nc(-c2ccncc2F)cc1=O` [compound 56] gave an IC50 of 6.4 nM. This IC50 is about 24-fold higher than that of the compound before.

`Cn1c(N2CCO[C@@H](c3ccc(N[C@@H]4CCOC4)cc3)C2)nc(-c2ccncc2F)cc1=O` [compound 220, 2-((2S)-2-(4-(N-((3R)-Tetrahydrofuran-3-yl)amino)phenyl)morpholin-4-yl)-3-methyl-6-(3-fluoropyridin-4-yl)-3H-pyrimidin-4-one] registered an IC50 of 2.7 nM. This IC50 is about 2.4-fold lower than that of the compound before.

With `CN(c1ccc([C@H]2CN(c3nc(-c4ccncc4F)cc(=O)n3C)CCO2)cc1)[C@@H]1CCOC1` [compound 221, 6-(3-Fluoropyridin-4-yl)-2-((2S)-2-(4-(N-methyl-N-((3R)-tetrahydrofuran-3yl)amino)phenyl)morpholin-4-yl)-3-methyl-3H-pyrimidin-4-one], the IC50 is 3.9 nM.

Regarding `Cn1c(N2CCO[C@@H](c3ccc(C(=O)N4CCOCC4)cc3)C2)nc(-c2ccncc2F)cc1=O` [compound 310], 7.4 nM corresponded to half-maximal inhibition (IC50).

The compound `Cn1c(N2CCO[C@@H](c3ccc(OCCN4CCOCC4)cc3)C2)nc(-c2ccncc2F)cc1=O` [compound 224] yielded a half-maximal inhibitory concentration (IC50) of 1.1 nM.

With `CN(c1ccc([C@H]2CN(c3nc(-c4ccncc4F)cc(=O)n3C)CCO2)cc1)c1ccccn1` [compound 212], the IC50 stood at 5.4 nM.

The compound `Cn1c(N2CCO[C@@H](c3ccc(NC(=O)C4CCCCC4)cc3)C2)nc(-c2ccncc2F)cc1=O` [compound 209] returned a concentration for half-maximal inhibition (IC50) of 2.2 nM. This IC50 is about 2.5-fold lower than that of the compound before.

Turning to `COc1cc(Cl)ccc1[C@H]1CN(c2nc(-c3ccncc3Cl)cc(=O)n2C)CCO1` [compound 247], the IC50 was determined as 13 nM.

`Cn1c(N2CCO[C@@H](c3cc4ccccc4o3)C2)nc(-c2ccncc2F)cc1=O` [compound 4]: it took 7.9 nM to reach half-maximal inhibition (IC50).

In the case of `COc1ccc(NC(C)=O)cc1[C@H]1CN(c2nc(-c3ccncc3F)cc(=O)n2C)CCO1` [compound 313], it took 0.48 nM to reach half-maximal inhibition (IC50).

`Cc1cc(C2CN(c3nc(-c4ccncc4F)cc(=O)n3C)CCO2)ccc1Br` (stereo not drawn) [compound 210] registered an IC50 of 0.51 nM.

Regarding `Cn1c(N2CCN[C@@H](c3ccc(N4CCN(c5ccccc5)CC4)cc3)C2)nc(-c2ccncc2F)cc1=O` [compound 22], the IC50 was determined as 0.53 nM.

The compound `CC(=O)N1CCC(Oc2ccc([C@H]3CN(c4nc(-c5ccncc5F)cc(=O)n4C)CCO3)cc2)CC1` [compound 238, 2-((2S)-2-(4-(1-Acetylpiperidin-4-yloxy)phenyl)morpholin-4-yl)-6-(3-fluoropyridin-4-yl)-3-methyl-pyrimidin-4-one] displayed a half-inhibitory concentration (IC50) of 6.4 nM. Against the preceding compound, the IC50 is about 12-fold higher.

Consider `CC(C)Oc1ccc(-c2ccc([C@H]3CN(c4nc(-c5ccncc5F)cc(=O)n4C)CCN3)cc2)cc1` [compound 92], for which 1.2 nM corresponded to half-maximal inhibition (IC50).

Compound `Cn1c(N2CCC[C@H](c3ccc(Br)cc3)C2)nc(-c2ccncc2F)cc1=O` [compound 303, 2-((3R)-3-(4-Bromophenyl)piperidin-1-yl)-6-(3-fluoropyridin-4-yl)-3-methyl-3H-pyrimidine-4-one] returned a half-inhibitory concentration (IC50) of 6.2 nM.

`CN(C)C(=O)Nc1ccc([C@H]2CN(c3nc(-c4ccncc4F)cc(=O)n3C)CCO2)cc1` [compound 298, N′-(4-((2S)-4-(6-(3-Fluoropyridin-4-yl)-3-methyl-4-oxo-3H-pyrimidin-2-yl)morpholin-2-yl)phenyl)-N,N-dimethylurea] had a concentration for half-maximal inhibition (IC50) of 11 nM. Compared with the last compound, the IC50 is about 1.8-fold higher.

Compound `Cn1c(N2CCO[C@@H](c3ccc(NC(=O)C(C)(C)C)cc3)C2)nc(-c2ccncc2F)cc1=O` [compound 215] came in with an IC50 of 4.2 nM.

`Cn1c(N2CCOC(c3ccc4c(c3)CCC(=O)N4)C2)nc(-c2ccncc2F)cc1=O` (stereo not drawn) [compound 305] showed an IC50 of 1.2 nM.

As for `Cn1c(N2CCO[C@@H](c3ccc(N)cc3)C2)nc(-c2ccncc2F)cc1=O` [compound 158, 2-((2S)-2-(4-Aminophenyl)morpholin-4-yl)-6-(3-fluoropyridin-4-yl)-3-methyl-3H-pyrimidin-4-one], half-maximal inhibition (IC50) was put at 2.9 nM.

`CC(=O)Nc1cccc([C@H]2CN(c3nc(-c4ccncc4F)cc(=O)n3C)CCO2)c1` [compound 314] gave an IC50 of 4.1 nM.

As for `Cn1c(N2CCN[C@@H](c3ccc(N4CCCCC4)cc3)C2)nc(-c2ccncc2F)cc1=O` [compound 14, 6-(3-Fluoro-pyridin-4-yl)-3-methyl-2-((3S)-3-(4-piperidin-1-yl-phenyl)-piperazin-1-yl)-3H-pyrimidin-4-one], half-maximal inhibition (IC50) was put at 3.7 nM. This IC50 and that of the compound before are within 1.5-fold of each other.

With `Cn1c(N2CCO[C@@H](c3c(F)cccc3Cl)C2)nc(-c2ccncc2F)cc1=O` [compound 5], inhibition was half-maximal at 1.4 nM (IC50). This IC50 lies about 2.6-fold lower than the previous one.

With `Cc1nc(-c2ccc([C@H]3CN(c4nc(-c5ccncc5F)cc(=O)n4C)CCN3)cc2)no1` [compound 334, 6-(3-Fluoropyridin-4-yl)-3-methyl-2-((3S)-3-(4-(5-methyl-[1,2,4]oxadiazol-3-yl)phenyl)piperazin-1-yl)-3H-pyrimidin-4-one], the IC50 came to 2.9 nM.

By IC50 is commonly meant the point on the concentration scale where inhibition reaches its midpoint. The low end stands for higher potency, the high end for lower potency.
